Results: patent publication US5980913A, “Peptides having immunomodulatory activity” (Biochem Pharma, Inc., priority 1994, dated 1999)
Where a SMILES comes first, the peptide text is derived from it. [ ]: non-standard residue; d: D form.

Test system: spleen cell subsets (cell surface antigens)
Assay: In vivo/ex vivo immunophenotyping in the spleen, mice treated 4 consecutive days
Parameters: species or system C57BL/6 mice
Description: C57BL.backslash.6 mice are treated with 0, 50, 100, 200, and 300 mg/kg of drug (in saline) for 4 consecutive days. Blood is taken by cardiac puncture on day 5, and the lymphocytes are isolated from spleen in the following manner:
The spleen is aseptically removed and mashed by pressing against a steel strainer with a rubber plunger. The cell suspension is separated from the clumps by letting them settle at the bottom of the tube. The cell suspension is then separated on a Lymphocyte M layer and the interface is recovered and resuspended in media.
1. Immunophenotyping (blood and spleen)
Cell immunophenotyping is performed on blood and spleen. The following cell surface antigens are analyzed:
CD4 (T helper/inducer, binds class II-restricted T cells);
CD8 (cytotoxic T cells, CTL adhesion);
MAC-1 (monocyte/macrophage);
NK (natural killer cells);
CD45 (all leukocytes, protein tyrosine phosphatase).

## NCCCC[C@@H](N)C(=O)N[C@@H](CC(N)=O)C(=O)N1CCC[C@H]1C(=O)N[C@@H](Cc1ccc(O)cc1)C(=O)O [PEPTIDE #5, H-(D-Lys)-Asn-Pro-Tyr-OH] (H-[dK]NPY-OH)
100 mg/kg, first assay
  TCR(T) cell subset, relative percentage, MEAN: 39.83
100 mg/kg, second assay
  CD4+ CD8+ cell subset, relative percentage, MEAN: 0.53
  CD4+ CD8- cell subset, relative percentage, MEAN: 31.78
  CD4+ CD11b+ cell subset, relative percentage, MEAN: 0.33
  CD4+ CD11b- cell subset, relative percentage, MEAN: 14.65
  CD4- CD8+ cell subset, relative percentage, MEAN: 4.68
  CD4- CD8- cell subset, relative percentage, MEAN: 63.03
  CD4- CD11b+ cell subset, relative percentage, MEAN: 3.53
  CD4- CD11b- cell subset, relative percentage, MEAN: 81.53
  CD45+ CD4+ cell subset, relative percentage, MEAN: 26.40
  CD45+ CD4- cell subset, relative percentage, MEAN: 50.20
  CD45+ CD8+ cell subset, relative percentage, MEAN: 4.80
  CD45+ CD8- cell subset, relative percentage, MEAN: 73.48
  CD45- CD4+ cell subset, relative percentage, MEAN: 6.83
  CD45- CD4- cell subset, relative percentage, MEAN: 16.60
  CD45- CD8+ cell subset, relative percentage, MEAN: 0.10
  CD45- CD8- cell subset, relative percentage, MEAN: 21.68
  Ly5(B) cell subset, relative percentage, MEAN: 48.28
  NK+ CD3+ cell subset, relative percentage, MEAN: 2.25
  NK+ CD3- cell subset, relative percentage, MEAN: 4.10
  NK- CD3+ cell subset, relative percentage, MEAN: 28.65
  NK- CD3- cell subset, relative percentage, MEAN: 65.05
  TCR(T) cell subset, relative percentage, MEAN: 40.33
200 mg/kg, first assay
  CD4+ CD8+ cell subset, relative percentage, MEAN: 0.63
  CD4+ CD8- cell subset, relative percentage, MEAN: 33.73
  CD4+ CD11b+ cell subset, relative percentage, MEAN: 1.00
  CD4+ CD11b- cell subset, relative percentage, MEAN: 22.65
  CD4- CD8+ cell subset, relative percentage, MEAN: 5.68
  CD4- CD8- cell subset, relative percentage, MEAN: 60.00
  CD4- CD11b+ cell subset, relative percentage, MEAN: 3.58
  CD4- CD11b- cell subset, relative percentage, MEAN: 72.00
  CD45+ CD4+ cell subset, relative percentage, MEAN: 21.18
  CD45+ CD4- cell subset, relative percentage, MEAN: 54.03
  CD45+ CD8+ cell subset, relative percentage, MEAN: 5.28
  CD45+ CD8- cell subset, relative percentage, MEAN: 64.83
  CD45- CD4+ cell subset, relative percentage, MEAN: 14.33
  CD45- CD4- cell subset, relative percentage, MEAN: 10.48
  CD45- CD8+ cell subset, relative percentage, MEAN: 0.55
  CD45- CD8- cell subset, relative percentage, MEAN: 29.35
  Ly5(B) cell subset, relative percentage, MEAN: 59.50
  NK+ CD3+ cell subset, relative percentage, MEAN: 1.95
  NK+ CD3- cell subset, relative percentage, MEAN: 3.88
  NK- CD3+ cell subset, relative percentage, MEAN: 35.70
  NK- CD3- cell subset, relative percentage, MEAN: 58.50
  TCR(T) cell subset, relative percentage, MEAN: 37.30
200 mg/kg, second assay
  CD4+ CD8+ cell subset, relative percentage, MEAN: 0.55
  CD4+ CD8- cell subset, relative percentage, MEAN: 36.13
  CD4+ CD11b+ cell subset, relative percentage, MEAN: 0.33
  CD4+ CD11b- cell subset, relative percentage, MEAN: 13.10
  CD4- CD8+ cell subset, relative percentage, MEAN: 4.95
  CD4- CD8- cell subset, relative percentage, MEAN: 58.40
  CD4- CD11b+ cell subset, relative percentage, MEAN: 3.20
  CD4- CD11b- cell subset, relative percentage, MEAN: 78.38
  CD45+ CD4+ cell subset, relative percentage, MEAN: 29.00
  CD45+ CD4- cell subset, relative percentage, MEAN: 52.45
  CD45+ CD8+ cell subset, relative percentage, MEAN: 5.08
  CD45+ CD8- cell subset, relative percentage, MEAN: 78.23
  CD45- CD4+ cell subset, relative percentage, MEAN: 8.63
  CD45- CD4- cell subset, relative percentage, MEAN: 9.98
  CD45- CD8+ cell subset, relative percentage, MEAN: 0.13
  CD45- CD8- cell subset, relative percentage, MEAN: 16.60
  Ly5(B) cell subset, relative percentage, MEAN: 46.50
  NK+ CD3+ cell subset, relative percentage, MEAN: 2.35
  NK+ CD3- cell subset, relative percentage, MEAN: 4.35
  NK- CD3+ cell subset, relative percentage, MEAN: 32.15
  NK- CD3- cell subset, relative percentage, MEAN: 61.10
  TCR(T) cell subset, relative percentage, MEAN: 47.23
